The source of these data is the supplement of paper PMC10307832.

The first test concerns NCI-H650. Kind of test: relative viability (nuclei count vs DMSO), 5 days (fraction); higher = more cells survive. Conditions: first compound 0.6325 µM. In a few lines:
(§1)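 Medians of duplicate plates are given as relative viability. That measure is the nuclei count in treated wells divided by the count in vehicle wells. Counts were taken on 4× images of lung cancer cell lines in 1536-well plates, 5 days after pin-tool dosing the day after seeding with one drug alone or a fixed anchor-drug dose plus five library-drug doses (not always all listed) in √10 steps.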
Consider `COCC1(CO)C(=O)C2CCN1CC2` (stereo unspecified) [PRIMA-1MET] + O=C(CCCCCCC(=O)Nc1ccccc1)NO [Vorinostat] (partner 1 µM), for which the relative viability came to 0.361.

Staying with this test, now noted: first compound 2 µM.
For `COCC1(CO)C(=O)C2CCN1CC2` (stereo unspecified) [PRIMA-1MET] + CS(=O)(=O)CCNCc1ccc(-c2ccc3ncnc(Nc4ccc(OCc5cccc(F)c5)c(Cl)c4)c3c2)o1 [Lapatinib] (partner 2 µM), the relative viability was 0.914.
Same read-out and setting: then `COCC1(CO)C(=O)C2CCN1CC2` (stereo unspecified) [PRIMA-1MET] + O=C(CCCCCCC(=O)Nc1ccccc1)NO [Vorinostat] (partner 1 µM), with 0.442; and `COCC1(CO)C(=O)C2CCN1CC2` (stereo unspecified) [PRIMA-1MET] + Cc1cc(Nc2cc(N3CCN(C)CC3)nc(Sc3ccc(NC(=O)C4CC4)cc3)n2)n[nH]1 [Tozasertib] (partner 0.1 µM), with 0.639; and `COCC1(CO)C(=O)C2CCN1CC2` (stereo unspecified) [PRIMA-1MET] + COc1cccc2cc(-c3nc([C@H]4CC[C@H](C(=O)O)CC4)n4ncnc(N)c34)[nH]c12 [OSI-027] (partner 0.5 µM), with 0.5.

Still in this test, the particulars now being: first compound 6.325 µM.
`COCC1(CO)C(=O)C2CCN1CC2` (stereo unspecified) [PRIMA-1MET] + CS(=O)(=O)CCNCc1ccc(-c2ccc3ncnc(Nc4ccc(OCc5cccc(F)c5)c(Cl)c4)c3c2)o1 [Lapatinib] (partner 2 µM): the relative viability is 0.871.
On to `COCC1(CO)C(=O)C2CCN1CC2` (stereo unspecified) [PRIMA-1MET] + O=C(CCCCCCC(=O)Nc1ccccc1)NO [Vorinostat] (partner 1 µM), for which the relative viability is 0.311.
As for `COCC1(CO)C(=O)C2CCN1CC2` (stereo unspecified) [PRIMA-1MET] + Cc1cc(Nc2cc(N3CCN(C)CC3)nc(Sc3ccc(NC(=O)C4CC4)cc3)n2)n[nH]1 [Tozasertib] (partner 0.1 µM), the relative viability amounted to 0.749.
Turning to `COCC1(CO)C(=O)C2CCN1CC2` (stereo unspecified) [PRIMA-1MET] + COc1cccc2cc(-c3nc([C@H]4CC[C@H](C(=O)O)CC4)n4ncnc(N)c34)[nH]c12 [OSI-027] (partner 0.5 µM), the relative viability was 0.603.

Staying with this test, now noted: first compound 20 µM.
In turn, `COCC1(CO)C(=O)C2CCN1CC2` (stereo unspecified) [PRIMA-1MET] + CS(=O)(=O)CCNCc1ccc(-c2ccc3ncnc(Nc4ccc(OCc5cccc(F)c5)c(Cl)c4)c3c2)o1 [Lapatinib] (partner 2 µM) came in with a relative viability of 0.0916.
Consider `COCC1(CO)C(=O)C2CCN1CC2` (stereo unspecified) [PRIMA-1MET] + O=C(CCCCCCC(=O)Nc1ccccc1)NO [Vorinostat] (partner 1 µM), for which the relative viability was 0.0619.
Still for that read-out and setting: the same measure for `COCC1(CO)C(=O)C2CCN1CC2` (stereo unspecified) [PRIMA-1MET] + Cc1cc(Nc2cc(N3CCN(C)CC3)nc(Sc3ccc(NC(=O)C4CC4)cc3)n2)n[nH]1 [Tozasertib] (partner 0.1 µM): 0.306; for `COCC1(CO)C(=O)C2CCN1CC2` (stereo unspecified) [PRIMA-1MET] + COc1cccc2cc(-c3nc([C@H]4CC[C@H](C(=O)O)CC4)n4ncnc(N)c34)[nH]c12 [OSI-027] (partner 0.5 µM): 0.381.

A further test deals with NCI-H661. The description is as above. To be noted: first compound 0.2 µM. Put shortly: as §1
Consider `COCC1(CO)C(=O)C2CCN1CC2` (stereo unspecified) [PRIMA-1MET] + CS(=O)(=O)CCNCc1ccc(-c2ccc3ncnc(Nc4ccc(OCc5cccc(F)c5)c(Cl)c4)c3c2)o1 [Lapatinib] (partner 2 µM), for which the relative viability amounted to 0.531.
Still for that read-out and setting: then `COCC1(CO)C(=O)C2CCN1CC2` (stereo unspecified) [PRIMA-1MET] + O=C(CCCCCCC(=O)Nc1ccccc1)NO [Vorinostat] (partner 1 µM), with 0.853; and `COCC1(CO)C(=O)C2CCN1CC2` (stereo unspecified) [PRIMA-1MET] + Cc1cc(Nc2cc(N3CCN(C)CC3)nc(Sc3ccc(NC(=O)C4CC4)cc3)n2)n[nH]1 [Tozasertib] (partner 0.1 µM), with 0.369; and `COCC1(CO)C(=O)C2CCN1CC2` (stereo unspecified) [PRIMA-1MET] + COc1cccc2cc(-c3nc([C@H]4CC[C@H](C(=O)O)CC4)n4ncnc(N)c34)[nH]c12 [OSI-027] (partner 0.5 µM), with 0.747.

Staying with this test, now noted: first compound 0.6325 µM.
For the molecule `COCC1(CO)C(=O)C2CCN1CC2` (stereo unspecified) [PRIMA-1MET] + CS(=O)(=O)CCNCc1ccc(-c2ccc3ncnc(Nc4ccc(OCc5cccc(F)c5)c(Cl)c4)c3c2)o1 [Lapatinib] (partner 2 µM), the relative viability was found to be 0.467.
In the case of `COCC1(CO)C(=O)C2CCN1CC2` (stereo unspecified) [PRIMA-1MET] + O=C(CCCCCCC(=O)Nc1ccccc1)NO [Vorinostat] (partner 1 µM), the relative viability worked out at 0.771.
Turning to `COCC1(CO)C(=O)C2CCN1CC2` (stereo unspecified) [PRIMA-1MET] + Cc1cc(Nc2cc(N3CCN(C)CC3)nc(Sc3ccc(NC(=O)C4CC4)cc3)n2)n[nH]1 [Tozasertib] (partner 0.1 µM), the relative viability is 0.354.
Consider `COCC1(CO)C(=O)C2CCN1CC2` (stereo unspecified) [PRIMA-1MET] + COc1cccc2cc(-c3nc([C@H]4CC[C@H](C(=O)O)CC4)n4ncnc(N)c34)[nH]c12 [OSI-027] (partner 0.5 µM), for which the relative viability amounted to 0.65.

Still in this test, the particulars now being: first compound 2 µM.
On to `COCC1(CO)C(=O)C2CCN1CC2` (stereo unspecified) [PRIMA-1MET] + O=C(CCCCCCC(=O)Nc1ccccc1)NO [Vorinostat] (partner 1 µM), for which the relative viability was 0.774.
`COCC1(CO)C(=O)C2CCN1CC2` (stereo unspecified) [PRIMA-1MET] + Cc1cc(Nc2cc(N3CCN(C)CC3)nc(Sc3ccc(NC(=O)C4CC4)cc3)n2)n[nH]1 [Tozasertib] (partner 0.1 µM) gave a relative viability of 0.357.
The same measure, in the same setting: the same measure for `COCC1(CO)C(=O)C2CCN1CC2` (stereo unspecified) [PRIMA-1MET] + COc1cccc2cc(-c3nc([C@H]4CC[C@H](C(=O)O)CC4)n4ncnc(N)c34)[nH]c12 [OSI-027] (partner 0.5 µM): 0.617.

Still in this test, the particulars now being: first compound 6.325 µM.
Take `COCC1(CO)C(=O)C2CCN1CC2` (stereo unspecified) [PRIMA-1MET] + CS(=O)(=O)CCNCc1ccc(-c2ccc3ncnc(Nc4ccc(OCc5cccc(F)c5)c(Cl)c4)c3c2)o1 [Lapatinib] (partner 2 µM): the relative viability is 0.493.
On the same count and under the same terms, the same measure for `COCC1(CO)C(=O)C2CCN1CC2` (stereo unspecified) [PRIMA-1MET] + O=C(CCCCCCC(=O)Nc1ccccc1)NO [Vorinostat] (partner 1 µM): 0.816.
